Measurements as given in US5001127A, “4-substituted pyrazolo[3,4-d]pyrimidine derivatives” (Ortho Pharmaceutical Corporation, priority 1989, dated 1991).
Read-outs that look alike come from different tables or passages of the source.

Test system: Adult mongrel dogs
Experiment: Cardiotonic activity in anesthetized dogs (MAP, HR, dP/dtmax, contractile force), iv infusion
Format: in vivo
Settings: for change in vivo at 1.875 mg/kg / ED (50% increase): Canis lupus familiaris; for ED (50% increase): dose producing 50% increase above baseline in myocardial contractile force, graphical estimation (n<3) or linear regression (n≥3), read-out: contractile force (CF) ED50
Protocol: Adult mongrel dogs were anesthetized with sodium pentobarbital (45 mg/kg, i.p.) and artificially respired. Mean arterial pressure (MAP) was recorded from a cannulated femoral artery and drugs were infused into a cannulated femoral vein. The arterial pressure pulse was used to trigger a cardiotachometer for determination of heart rate (HR). Left ventricular pressure was measured with a Millar catheter and dP/dtmax was derived. A right thoracotomy was performed and myocardial contractile force (CF) was measured with a Walton Brodie strain gauge sutured to the right ventricle. The ventricular muscle was stretched to produce a baseline tension of 100 g. A standard dose of dopamine (10-15 ug/kg/min for 3 min) was administered to determine myocardial responsiveness to inotropic stimulation. Test compounds were solubilized in a small volume of DMF diluted to a final concentration of 10% in physiological saline. Alternatively, where possible, a soluble hydrochloride salt was prepared by addition of 0.1N HCl diluted in physiological saline. Vehicles were tested in appropriate volumes and found to exert less than a 5% effect on contractile force. For iv studies, compounds were administered by infusion pump (one drug per animal) at rates of 0.58-2.2 mL/min in three to four stepwise increasing doses. Each dose was infused over 5 min immediately after the effect of the previous dose peaked. MAP, HR, dP/dtmax and CF responses were continuously monitored on a Beckman or Gould recorder and expressed as a percent change from pre-drug control values vs. the cumulative dose of drug administered. For these studies, n represents the number of test animals used.
Quantitation of the inotropic potency was obtained by calculation of the contractile force (CF) ED50. This was defined as the dose of compound that produced a 50% increase above baseline in myocardial contractile force. The value was obtained from three to four point dose-response curves using either graphical estimation (n<3) or linear regression analysis (n≥3). Numbers in parentheses are number of animals screened.

[1] = cumulative dose 1.875 mg/kg, femoral artery, read-out: MAP (mean arterial pressure), % Δ from control
[2] = cumulative dose 1.875 mg/kg, read-out: HR (heart rate), % Δ from control
[3] = cumulative dose 1.875 mg/kg, read-out: dP/dt (left ventricular dP/dtmax), % Δ from control
[4] = cumulative dose 1.875 mg/kg, right ventricle strain gauge, read-out: CF (myocardial contractile force), % Δ from control

Compound	change in vivo at 1.875 mg/kg [1]	change in vivo at 1.875 mg/kg [2]	change in vivo at 1.875 mg/kg [3]	change in vivo at 1.875 mg/kg [4]	ED (50% increase)	HR (heart rate), % Δ from control (cumulative dose 1.875 mg/kg)	dP/dt (left ventricular dP/dtmax), % Δ from control (cumulative dose 1.875 mg/kg)	MAP (mean arterial pressure), % Δ from control (cumulative dose 1.875 mg/kg, femoral artery)	CF (myocardial contractile force), % Δ from control (cumulative dose 1.875 mg/kg, right ventricle strain gauge)
CON(CC(O)CN1CCN(C(c2ccc(F)cc2)c2ccc(F)cc2)CC1)c1ncnc2[nH]ncc12 (stereo not drawn) [Example 11, 4-[3-[4-Bis(4-fluorophenyl)methyl-1-piperazinyl-2-hydroxypropyl-N-methoxyamino]-(1H)-pyrazolo[3,4-d]pyrimidine.5/4 Hydrate]	-2%	5%	25%	37%					
OC(COc1ncnc2c1cnn2C1CCCCO1)CN1CCN(C(c2ccc(F)cc2)c2ccc(F)cc2)CC1 (stereo not drawn) [Example 3, 4-[3-[4-[Bis(4-fluorophenyl)methyl]-piperazin-1-yl]-2-hydroxy-propoxy]-1-(tetrahydropyran-2-yl)pyrazolo[3,4-d]pyrimidine]	-13%	1%	1%	14%					
OC(CSc1ncnc2[nH]ncc12)CN1CCN(C(c2ccc(F)cc2)c2ccc(F)cc2)CC1 (stereo not drawn) [Example 1]	-3%	-10%	124%	205%	0.225 mg/kg				
OC(CNc1ncnc2[nH]ncc12)CN1CCN(C(c2ccc(F)cc2)c2ccc(F)cc2)CC1 (stereo not drawn) [Example 7, 4-[3-[4-Bis(4-fluorophenyl)methyl]-1-piperazinyl]-2-hydroxypropylamino-1H-pyrazolo[3,4-d]pyrimidine sesquihydrate]	6%	-20%	33%	111%					
OC(CSc1ncnc2[nH]ncc12)CN1CCN(C(c2ccccc2)c2ccccc2)CC1 (stereo not drawn) [Example 2, 4-[2-Hydroxy-1-[(diphenylmethyl)piperazin-4-yl)-3-propanylthio]-1H-pyrazolo[3,4-d]pyrimidine Hemihydrate]	-12%	-11%	48%	97%					
CN(CC(O)CN1CCN(C(c2ccc(F)cc2)c2ccc(F)cc2)CC1)c1ncnc2[nH]ncc12 (stereo not drawn) [Example 9, 4-[3-[4-Bis(4-fluorophenyl)methyl-1-piperazinyl]-2-hydroxypropylamino-N-methylamino-1H-pyrrazolo[3,4-d]pyrimidine Hemihydrate]	4%	3%	52%	54%					
CCN(CC(O)CN1CCN(C(c2ccc(F)cc2)c2ccc(F)cc2)CC1)c1ncnc2[nH]ncc12 (stereo not drawn) [Example 10, 4-[3-[4-Bis(4-fluorophenyl)methyl]-1-piperazinyl]-2-hydroxypropyl-N-ethylamino]-1H-pyrazolo[3,4-d]pyrimidine.1/4 Hydrate]	3%	13%	44%	63%					
OC(CSc1ncnc2[nH]ncc12)CN1CCN(C(c2ccc(Cl)cc2)c2ccc(Cl)cc2)CC1 (stereo not drawn) [Example 4, 4-[1-[1-[Bis(4-chlorophenyl)methyl]piperazin-4-yl]-2-hydroxy-3-pronanylthio]-1H-pyrazolo[3,4-d]pyrimidine]	8%	1%	90%	163%	0.45 mg/kg				
OC(CSc1ncnc2c1cnn2CC1CO1)CN1CCN(C(c2ccccc2)c2ccccc2)CC1 (stereo not drawn) [Example 5, 1-(1,2-Epoxy-3-propanyl)-4-[1-(diphenylmethylpiperazin-4-yl]-2-hydroxy-3-propanylthio]-1H-pyrazolo[3,4-d]pyrimidine]						-14 % Δ from control	28 % Δ from control	-8 % Δ from control	38 % Δ from control
CC(=O)OC(CNc1ncnc2[nH]ncc12)CN1CCN(C(c2ccc(F)cc2)c2ccc(F)cc2)CC1 (stereo not drawn) [Example 8, 4-[3-[4-Bis(4-fluorophenyl)methyl]-1-piperazinyl]-2-acetoxypropylamino-1H-pyrazolo[3,4-d]pyrimidine Hemihydrate]	6%	-1%	61%	135%					
